From article PMC10051477, “5,8-Dimethyl-9H-carbazole Derivatives Blocking hTopo I Activity and Actin Dynamics” (Pharmaceuticals, 2023)

What was measured:
[1] = target: T1, labeled rabbit muscle actin (Oryctolagus cuniculus, UniProt P68135); experiment: In vitro actin polymerization assay; format: biochemical; conditions: 5 µM, 1 h, room temperature; vehicle plateau about 25,000 RFU
T1 construct: fluorescent label (chemical); purchased Abcam; host or cells: rabbit muscle
Text: With the aim to confirm the immunofluorescence results and substantiate whether compounds 3 and 4 could inhibit the actin polymerization mechanism and/or boost the F-actin depolymerization, we employed a fluorescent-labeled purified rabbit actin. LA and cytochalasin B (CB) were used as positive controls for both the polymerization inhibition and F-actin subunits dissociation, or only the polymerization inhibition, respectively. In the negative control reaction (only vehicle), actin monomers undergo a normal polymerization, as visible in Figure 5, panel A. The reaction curve rises in approximately 5 min to a value of about 25,000 RFU (plateau) which remains almost unvaried until the end of the experiment. Contrariwise, the two reference molecules, i.e., LA and CB, used at the concentration of 5 µM, braked the actin polymerization, mostly LA rather than CB, under the adopted experimental conditions, and the LA curve dropped until a value of about 8000 RFU at the reaction end.
An Actin Polymerization/Depolymerization Assay Kit, purchased from Abcam, was employed to assess the ability of compounds 3 and 4 to interfere with the actin polymerization and depolymerization processes. To perform the essays, the manufacturer’s instructions were followed with some modifications. In particular, polymerization assay was carried out incubating in a white 96-well plate the reconstituted actin with supplemented Buffer G, compounds 3 and 4 and then Buffer P was added in order to induce actin polymerization. For the Actin Depolymerization Assay, the actin polymerization was first induced, incubating supplemented Buffers P and G at room temperature for one hour. Then, compounds 3 and 4 were added at a concentration of 5 μM. Latrunculin A (LA) and Cytochalasin B (CB) were utilized as positive control at a concentration of 5 μM. For both the assays, the assemblage of the actin filaments was defined by measuring the fluorescence (Ex/Em: 365/410 nm) in kinetic mode for 1 h at room temperature in a microplate reader.

MDA-MB-231 cells [2] = experiment: TUNEL assay (apoptosis); format: cell-based, human; conditions: MDA-MB-231, 24 h, concentration equal to IC50 values
Experimental: Having individuated two intracellular targets, we wondered whether the lead compounds could induce apoptosis in MDA-MB-231 cells. Thus, we performed a TUNEL assay. […] Indeed, the exposure to both compounds produced a green nuclear fluorescence, already at 24 h, in MDA-MB-231 cells (Figure 6, 3 and 4, panels B, CF^TM488A) as a consequence of the damaged DNA. […] The overlay channel (Figure 6, panels C) is also shown.
TUNEL assay was employed to assess the cells apoptosis, following the manufacturer’s protocols (CF™488A TUNEL Assay Apoptosis Detection Kit, Biotium, Hayward, CA, USA) with few revisions. Briefly, the cells were plated and then additional processed as previously described. DAPI (0.2 μg/mL, Sigma Aldrich, Milan, Italy) was used for nuclei staining. A fluorescence microscope (Leica DM 6000) was used for fluorescence detection (20× magnification). LAS-X software allowed acquiring and processing all the fluorescence images, which are representative of three separate experiments.

[3] = tested on: actin system in MDA-MB-231 cells; experiment: Actin immunofluorescence in MDA-MB-231 cells; format: cell-based, human; conditions: MDA-MB-231, 24 h; compounds at their IC50 values, LA 0.1 µM
Experimental: In order to determine whether the lead compounds 3 and 4 may effectively regulate the actin system, we employed both the immunofluorescence and in vitro direct enzymatic assays. […] As negative and positive controls, we used the only vehicle (DMSO) and latrunculin A (LA) at a concentration of 0.1 µM, respectively. After processing, the cells were observed under a fluorescent microscope, (see experimental section for the details). […] Moreover, the latter looked brighter and stocked in the cytoplasm in dot-like structures or thicker fibers. Again, the MDA-MB-231 cells, under exposure to compounds 3 and 4, lost their shape (Figure 4, compounds 3 and 4, panels B), as we observed under LA treatment, and with a very similar arrangement of the actin network.
The cells were plated and further processed, as previously indicated. Specifically, the rabbit anti-β-Actin (Santa Cruz Biotechnology, Dallas, TX, USA), diluted 1:100 in bovine serum albumin (BSA) 2%, was used as primary antibody and incubated overnight at 4 °C. The secondary antibody, Alexa Fluor® 488 conjugate goat-anti-rabbit, was diluted 1:500 and incubated for 2 h at 37 °C. DAPI (4′,6-diamidino-2-phenylindole, Sigma Aldrich, Milan, Italy) 0.2 μg/mL was used for nuclei staining. A fluorescence microscope (Leica DM 6000) was utilized for fluorescence detection (40× magnification). LAS-X software allowed acquiring and processing all the fluorescence images, which are representative of three separate experiments.

MDA-MB-231 cells [4] = experiment: MTT assay, MDA-MB-231 cell viability; format: cell-based; conditions: Homo sapiens, 72 h, mean ± standard deviation
Experimental: (§1) The inhibition of cancer cell growth exerted by the five considered compounds (1–5) has been evaluated in vitro against two models of breast cancer, namely the estrogen receptor positive (ER+) MCF-7 and the triple negative MDA-MB-231 human breast cancer cells (lacking ER, PR, and HER-2/Neu amplification), together with the normal counterpart, namely the non-malignant breast epithelial cells MCF-10A. […] Moreover, no effects were recorded against the MCF-7 cells, at least until the concentration of 100 μM. […] Thus, the two lead compounds were chosen for subsequent studies aiming at individuating the molecular mechanisms underlying the observed anticancer activity.
(§2) MTT assays (Sigma Aldrich (St.Louis, MO, USA)) were employed to evaluate the in vitro anticancer activities of all the studied compounds, as previously described. The compounds were tested at different concentrations (0.1-1-10-25-50-100 μM) for 72 h. The IC50 values were calculated from the percent (%) of control using GraphPad Prism 9 (GraphPad Software, La Jolla, CA, USA).

MCF-10A cells = experiment: MTT assay, MCF-10A normal cell viability; format: cell-based, human; conditions: 72 h, non-malignant breast epithelial cells, mean ± standard deviation
Experimental: as §1, §2

Cc1ccc(C)c2c1c1cc(B(O)O)ccc1n2C(=O)OC(C)(C)C [Compound 3]
Actin polymerization, final fluorescence value of reaction curve [1]: about 13,000 RFU | Apoptosis induction (TUNEL, green nuclear fluorescence) (MDA-MB-231 cells [2]): able to trigger apoptosis | Effect on actin organization (immunofluorescence) [3]: interfere with the normal actin organization | IC50 (MDA-MB-231 cells [4]): 1.44 ± 0.97 µM | IC50 (MCF-10A cells): 51.9 ± 0.88 µM | IC50 (MCF-10A cells; Homo sapiens, MCF-10A): ~52 µM

Cc1ccc(C)c2c1c1cc(O)ccc1n2C(=O)OC(C)(C)C [Compound 4]
Actin polymerization, final fluorescence value of reaction curve [1]: around 16,000 RFU | Apoptosis induction (TUNEL, green nuclear fluorescence) (MDA-MB-231 cells [2]): able to trigger apoptosis | Effect on actin organization (immunofluorescence) [3]: interfere with the normal actin organization | IC50 (MDA-MB-231 cells [4]): 0.73 ± 0.74 µM | IC50 (MCF-10A cells; Homo sapiens, MCF-10A): > 100 µM
